The source of these data is US11135163B2, “Peptide hydrogel properties and its applications” (Kansas State University Research Foundation, priority 2014, dated 2021).

The nature of data set [1]: Hydrogelation and dynamic rheology of h9e in MEM. The data set is classed as physicochemical. Particulars: MEM without serum.
A short description of data set [2]: h9e-2i medium hydrogel rheology and stability. The format is physicochemical. How it is done: (§1) Two different types of stem cell mediums were selected for this test. One is a low glucose DMEM medium with 2% (v/v) Fetal Bovine Serum (FBS) for Mesenchymal Stromal Cell (MSC medium). The other one is a N2B27 supplemented serum-free 2i medium with 0.5% (v/v) Bovine Serum Albumin (BSA) for rat Embryonic Stem Cell (ESC, 2i medium). The hydrogel formation process was monitored under a time sweep rheological test for 1 hour. The special shear-thinning and self-healing property of h9e peptide hydrogel was also tested. […] In addition, the stability of hydrogel as well as the peptide solution before the hydrogel formation was also tested.
(§2) The h9e peptide was synthesized according to the method mentioned above. Lyophilized peptide was added to 100 mM sodium bicarbonate and completely dissolved by magnetic stirring for 3 hours with a final peptide concentration of 10 mM. For hydrogelation, peptide solution was added into MSC medium or 2i medium and the mixture was hand-shaken for about 10 seconds or gently pipette mixed 3 times. The final peptide concentrations were 1, 2, and 3 mM.
(§3) The storage and loss moduli (G′ and G″, respectively) of h9e hydrogels were determined on a C-VOR 150 rheometer system (Malvern instruments, Malvern, Worcestershire WR141XZ, United Kingdom) with a 20-mm diameter parallel plate geometry and 500 μm gap size at 37° C. The methods for hydrogel formation test and shear-thinning and self-healing test were the same as the methods of cancer cell medium mentioned above. After 24 hours of hydrogel formation, 2 mM peptide hydrogel was diluted 20 fold by adding cell culture medium and thorough mixing by pipette. The diluted solution was transferred to rheometer system and tested under 1 Hz frequency and 1% shear strain at 4° C. for 1 hour.
The stability of h9e-2i medium hydrogel was tested. A plastic tray was placed on the bottom of the well plate. Next, 1 wt % h9e solution was mixed with 2i medium at 1:1 (v:v) ratio in a centrifuge tube and then transferred into the well plate. There was 500 μl peptide hydrogel for each well. The well plate was then placed in an incubator for 1 hour. After hydrogel was stable, another 500 μl of 2i medium was slowly added on the top of hydrogel. The top medium was replaced every other day. For mechanical testing, the top 2i medium was removed and hydrogel was transferred to a dynamic rheometer using the tray. The stability of the peptide solution was also tested using 1 wt % peptide solution stored in 4° C. refrigerator for up to 24 days. Part of the peptide solution was taken out and mixed with 2i medium with 1:1 (v:v) ratio on days 1, 6, 18 and 24. The hydrogel formation process was monitored under the single frequency (1 Hz) rheological test with 1% shear strain for 1 hour.

A short description of data set [3]: Rheology of h9e/HSA hydrogel formation. The format is physicochemical. How it is done: For albumin triggered hydrogel formation, 10 mM (1.74 wt %) peptide was first dissolved in 100 mM NaHCO3 solution. BSA and HSA were dissolved in water with 5 wt % concentration. The peptide solution and albumin solution were then mixed at different ratios for final mixtures of 1, 2, 3 mM h9e peptide with albumin from 0.1 to 5 wt %.
The storage (G′) and loss (G″) moduli of h9e hydrogels with different peptide/albumin ratios were measured on a rheometer system C-VOR 150 (Malvern instruments, Malvern, Worcestershire WR141XZ, United Kingdom) with a 20 mm diameter parallel plate test system. All rheological tests were carried out at 37° C. To determine the hydrogel forming rate, the peptide and albumin mixture was placed on the measuring system immediately after preparation and tested by a single frequency (1 Hz) method with steady shear strain (1%) for 1 hour

Data set [4] in a line: h9e-MSC medium hydrogel rheology. The data set is classed as physicochemical. The procedure:
as §1, §2, §3

In a further data set the test system is Rat ESCs and iPSCs. The experiment in a line: Stem cell 3D culture in h9e hydrogel. The data set is classed as cell-based. The source says: Rat PSCs: Animal use was approved by the KSU Institutional Animal Care and Use Committee (protocol #3168). Rat ESCs were derived in-house from Dark Agouti rats and characterized following the methods described in previous studies. Low passage ESCs were thawed, expanded one passage in 2D on MEF feeders, and then used in these experiments. Rat iPSCs were generated from Fischer 344 rat embryonic fibroblasts using a mouse OKSM STEMCCA lentiviral reprogramming vector according to the manufacturer's protocol (Millipore, SCR513).
3D cell culture: We adapted the techniques used previously to encapsulate breast cancer cells in 3D described in previous studies. This was done by using the regular h9e peptide hydrogel (1% wt=6 mM) in an aqueous solution. The peptide hydrogel-medium was prepared by directly mixing the aqueous h9e peptide solution with concentrated 2i plus LIF medium at 1:1 ratios for a final peptide concentration of 3 mM (600 Pa). […] Specifically, medium was made at 1.2× concentration for the 1:5 dilution, […] for the […] and 2× for the 1:1 dilution in the three h9e hydrogel concentrations. After mixing, the cells were added and the mixture was immediately added to the dish slowly to avoid air bubbles. The plates were then incubated for 30 min at 37° C. to permit gelation. To feed, 1× concentration 2i plus LIF medium was added slowly to the top of the hydrogel. To pass, the media was pipetted up and down by adding 1-2 ml of PBS more forcefully to shear the gel, and the liquefied contents were then added to a tube and diluted to a concentration that was below that which permitted gelation. The colonies were pelleted by low speed centrifugation (100×g for 5 min at room temperature), washed with calcium and magnesium free PBS, and then trypsinized to single cells by addition of trypsin EDTA for 5 min. Enzymatic reaction was terminated by dilution with PBS and 2 washing steps. The PSCs were suspended in a small volume of medium, added to the 1× hydrogel-medium solution, and re-plated at the desired concentration. Alkaline phosphatase staining, Immunofluorescence staining: Karyotyping, Embryoid body formation, Gene expression analysis were performed to determine the differentiation properties.

Data set [5] in a line: Instantaneous gelation time sweep of peptide sequences 1, 3 and 4. The data set is classed as physicochemical. Particulars: triggered with 100 mM CaCl2 solution (FIG. 12, 13). The procedure:
Similar to the methods used in U.S. 2013/0018004. Hydrogels were prepared with peptide 1, 3, and 4 alone, or mixture of peptide sequence 1 and 4 at 1:1 ratio. Hydrogels were triggered by calcium ions and BSA alone or co-trigger (calcium ions+BSA).

Read-outs that look alike come from different tables or passages of the source.

Regarding “H-FLIVIGSIIGPGGDGPGGD-NH2 [h9e, FLIVIGSIIGPGGDGPGGD]”, the “solution to hydrogel transition” value in data set [1] was “did not stimulate this solution to hydrogel transitions effectively”. The “stability of h9e solution” value is recorded as “exceed 2 months” in data set [2] and “could still form a hydrogel” in data set [2] (stored at 4° C. for 24 days, then mixed with 2i medium). In data set [2] (1 mM h9e-2i hydrogel), the “G′” value is listed as “about 100 Pa”. The “G′ after shearing into liquid state” value in data set [2] (2 mM h9e-2i hydrogel) is listed as less than 0.2 Pa. Also, the “stable G′” value in data set [2] (2 mM h9e-2i hydrogel) is listed as 600 Pa; in data set [2] (3 mM h9e-2i hydrogel), 600 Pa; in data set [4] (1 mM h9e-MSC hydrogel), 70 Pa; in data set [4] (2 mM h9e-MSC hydrogel), 350 Pa; in data set [4] (3 mM h9e-MSC hydrogel), 800 Pa. Besides, the mechanical strength restored in data set [2] (2 mM h9e-2i hydrogel, within a few minutes of recovery test) stood at 100%. Also, the “G′ of h9e-2i hydrogel during 7 days (stability)” value in data set [2] (1 wt % h9e solution mixed 1:1 with 2i medium) is recorded as 130-160 Pa. In addition, the hydrogel formation result in data set [3] (3 mM h9e peptide mixed with 5 wt % HSA) is on record as “hydrogel was formed”; in data set [3] (peptide concentration 1 mM or HSA concentration 0.5 wt %), “Hydrogel did not form”. Besides, the “G′ under 500% shear strain” value in data set [4] (2 mM h9e-MSC hydrogel) is given as “lower than 0.2 Pa”. Also, the gel strength recovered result in data set [4] (2 mM h9e-MSC hydrogel, 1 min after shear ceased) is “greater than 90%”. The substance further showed a mechanical strength recovered in data set [4] (2 mM h9e-MSC hydrogel, within a few minutes of 1% shear strain recovery test) of 100%. The “G′ and G″ after 20-fold dilution” value in data set [4] (diluted from 2 mM to 0.1 mM, 1 hour test) is given as “lower than 4 Pa”. Moreover, in the data set on Rat ESCs and iPSCs (3 mM h9e hydrogel, 3D culture), the “serial passages maintained in the undifferentiated state (Oct4, Nanog, Sox2, SSEA-1 staining)” value is reported as “at least 25 serial passages”. For the same substance, in the data set on Rat ESCs and iPSCs (3 mM hydrogel), the “proliferation of encapsulated rat pluripotent stem cells” value is on record as “proliferated well”. For the same substance, in the data set on Rat ESCs and iPSCs (3D culture in hydrogel), the “alkaline phosphatase staining after more than 25 passages” value is listed as “not affected”. The “spontaneous differentiation on the colony edges” value with Rat ESCs and iPSCs (rat ESC or rat iPSC cultures) is on record as “never observed”. Also, the “final gel strength after 30 minute gelation time sweep” value in data set [5] was 240 Pa.
